Numbers after ± are expanded uncertainties.
Details: 298.15 K; 101.33 kPa; Liquid; Cone and plate viscometry

viscosity	SMILES
111 ± 14 mPa·s	CCCCn1cc[n+](C)c1.CS(=O)(=O)[O-] [1-butyl-3-methylimidazolium methanesulfonate]
32.9 ± 1.1 mPa·s	CS(=O)(=O)[O-].Cn1cc[n+](C)c1 [1,3-dimethyl-1H-imidazolium methanesulfonate]
31.9 ± 2.4 mPa·s	CCCCn1cc[n+](CCCC)c1.CS(=O)(=O)[O-] [1,3-dibutyl-1H-imidazolium methanesulfonate]
70.5 ± 2.7 mPa·s	CCn1cc[n+](C)c1.CS(=O)(=O)[O-] [1-ethyl-3-methylimidazolium methanesulfonate]
